Results on 82 molecules are retold here after publication PMC12040169 (PLOS Biology, 2025).

One data set is described as follows: in vitro. The following applies: human, hela cells, % viability.
Regarding `CCN(CCO)C(=O)c1cccc(-c2cnn(C(F)F)c2C)c1` [CBK307519], the viability at 28.5 h, 10 µM stood at 95.5%.

As for `CN(C(=O)C1CC1)c1nc2c(s1)CCc1c-2cnn1C` [CBK281927], the viability at 28.5 h, 10 µM worked out at 75.7%.

Consider `COc1cc(/C=N/Nc2nnn[nH]2)cc2c1OCO2` [CBK262253], for which the viability at 28.5 h, 10 µM amounted to 100%. For `O=C(Oc1ccc2c(c1)OCO2)c1cc(S(=O)(=O)N2CCOCC2)c(Cl)cc1Cl` [CBK269709], the viability at 28.5 h, 10 µM was 101%. The same measure, in the same setting: with `CN(C)C(=O)c1cccc(-c2nccnc2NCc2cccc([N+](=O)[O-])c2)c1` [CBK036651] the figure was 94.3%; with `FC(F)(F)c1cccc(OC2CCCNC2)n1` (stereo not shown) [CBK113290], 93.2%; with `Cn1nccc1CCNC(=O)c1cccc(S(=O)(=O)N2CCCCC2)c1` [CBK304363], 97%.

Regarding `CN(Cc1ccc(Br)cc1)C(=O)CNS(=O)(=O)c1cnn(C)c1` [CBK304553], the viability at 28.5 h, 10 µM was 82.5%.

For the molecule `O=S(=O)(c1cccs1)N1CCCN(Cc2nccs2)CC1` [CBK045172], the viability at 28.5 h, 10 µM worked out at 119%. Turning to `O=C(NCc1ccccn1)c1ccc(-n2ccnc2)c(-n2cccc2)c1` [CBK285347], the viability at 28.5 h, 10 µM turned out to be 80.8%. In the case of `CC(C)CC(NC(=O)c1cccnc1)c1nnc2n1CCNCC2` (stereo not shown) [CBK307149], the viability at 28.5 h, 10 µM was 89.2%. On the same count and under the same terms, then `CC(CCCC(C)(C)O)Nc1cncc(-c2cccc(C(=O)O)c2)n1` (stereo not shown) [CBK065489], with 103%. For the molecule `CN1C(=O)CC(NCc2ccc(S(N)(=O)=O)cc2)C1=O` (stereo not shown) [CBK262352], the viability at 28.5 h, 10 µM came out at 87.4%. For `S=c1[nH]cnc2c1[nH]c1ccc(Br)cc12` [CBK288487], the viability at 28.5 h, 10 µM is 102%. In the case of `O=C(NCCc1ccc(Cl)cc1)C1(Cc2cccc(-c3cccnc3)c2)CCOCC1` [CBK285606], the viability at 28.5 h, 10 µM is 96.7%. Still for that read-out and setting: with `O=C(c1ccncc1)N1CCCCC1c1nc2ccccc2[nH]1` (stereo not shown) [CBK281641] the figure was 87.2%. Take `O=C(CC(CN1CCN(Cc2ccccn2)CC1)C(=O)O)NCc1ccccc1` (stereo not shown) [CBK286865]: the viability at 28.5 h, 10 µM came out at 81.2%.

`Clc1ccc(-c2nccnc2OCc2ccccn2)cc1Cl` [CBK107108]: the viability at 28.5 h, 10 µM came to 94.7%. `COc1ccccc1OCCSc1nnnn1C1CCCCC1` [CBK141884]: the viability at 28.5 h, 10 µM turned out to be 96.6%. With `Cc1cccc(-c2ncc(NC(=O)CCc3cccc(Cl)c3)nc2-c2cccnc2)c1` [CBK037201], the viability at 28.5 h, 10 µM was found to be 97.2%. For `O=C(O)c1cc(C(=O)O)cc(N2C(=O)C3C4C=CC(C4)C3C2=O)c1` (stereo not shown) [CBK261193], the viability at 28.5 h, 10 µM came to 97.5%.

On to `CCCc1cc(C(N)=O)cc(CCC)c1OCC` [CBK015537], for which the viability at 28.5 h, 10 µM stood at 98%.

For `O=C(O)COc1ccc(S(=O)(=O)N2CCCCC2)cc1Cl` [CBK268419], the viability at 28.5 h, 10 µM amounted to 105%.

In the case of `O=C(Nc1cccc(C(F)(F)F)c1)Nc1cccc(S(=O)(=O)N2CCOCC2)c1` [CBK267043], the viability at 28.5 h, 10 µM came out at 99%. As for `Nc1nnc2c(C(F)(F)F)nc3ccccc3n12` [CBK021345], the viability at 28.5 h, 10 µM turned out to be 82.1%.

As for `COc1ccc2[nH]cc(CCNC3CCc4cccc(OC)c4C3)c2c1` (stereo not shown) [CBK016569C], the viability at 28.5 h, 10 µM is 80.1%. For `O=S(=O)(NC1c2cccc3cccc(c23)C1N1CCNCC1)c1ccc(Cl)cc1` (stereo not shown) [CBK264082], the viability at 28.5 h, 10 µM turned out to be 92.2%. For `c1ccc(CCc2nn3c(Cn4cnc5ccccc54)nnc3s2)cc1` [CBK268332], the viability at 28.5 h, 10 µM came to 84.2%. Same read-out and setting: then `CC1CCC(N(Cc2nnc(C3CCC3)n2C)CC2CCCO2)CC1` (stereo not shown) [CBK305540], with 97.3%; and `O=C(c1cccnc1)N1CCN(CCN2C(=O)C3C4C=CC(C4)C3C2=O)CC1` (stereo not shown) [CBK263639], with 98.2%. Take `COc1ccc(CCNC(=O)N2CCN(C3CCN(C)CC3)CC2)cc1OC` [CBK155897]: the viability at 28.5 h, 10 µM is 94.3%. For the molecule `CS(=O)(=O)N(CC(=O)O)c1ccc2c(c1)OCCO2` [CBK287151], the viability at 28.5 h, 10 µM turned out to be 96.6%. The same measure, in the same setting: then `CCC(=O)Nc1nonc1-c1nc2ccccc2n1Cc1ccc(F)cc1Cl` [CBK269608], with 84.1%; and `N#Cc1ccccc1CSc1nc2ccc(NC(=O)c3ccc([N+](=O)[O-])cc3)cc2s1` [CBK265868], with 90.7%.

`CC(C)(C)c1ccc(OCc2nc(N)c3c(N)n[nH]c3n2)cc1` [CBK008565]: the viability at 28.5 h, 10 µM turned out to be 90.8%. Take `Cc1ccc(CN(CCCn2ccnc2)Cc2ccccn2)o1` [CBK283102]: the viability at 28.5 h, 10 µM amounted to 106%. Consider `Nc1ccc(Sc2nccnc2N2CCCC2)cc1` [CBK089520], for which the viability at 28.5 h, 10 µM was determined as 94.4%. For `O=C(O)CCn1oc(=O)c2ccccc21` [CBK020340], the viability at 28.5 h, 10 µM came to 89.8%. Regarding `O=C(O)c1ccc(CNCc2ccc(-c3ccc(Cl)cc3)o2)cc1` [CBK269619C], the viability at 28.5 h, 10 µM was 94.7%. `COc1ccc(Sc2nc3cc(Cl)c(Cl)cc3nc2NC(C)C)cc1OC` [CBK093792]: the viability at 28.5 h, 10 µM was determined as 103%. In the case of `O=C(NCc1ccc(C(F)(F)F)cc1)[C@@H]1Cc2[nH]cnc2CN1C1CCOCC1` [CBK288981], the viability at 28.5 h, 10 µM was determined as 103%.

As to `COc1cc(C)c(Nc2cc(-c3ccc4c(c3)OCO4)ncn2)cc1OC` [CBK037711], the viability at 28.5 h, 10 µM stood at 98.9%. Take `CN(C)CCNc1nc(-c2cccc3ncccc23)cnc1N` [CBK063693]: the viability at 28.5 h, 10 µM was found to be 102%.

`OCCN(CCO)CC1CC=CCC1` (stereo not shown) [CBK261907]: the viability at 28.5 h, 10 µM is 108%. Consider `O=C(O)CCc1ccc(-c2ccc(F)cc2)n1Cc1ccco1` [CBK265953], for which the viability at 28.5 h, 10 µM was found to be 83.9%. Turning to `COCCNS(=O)(=O)c1cccc2c1CN(C(=O)c1ccccc1)CC2` [CBK306539], the viability at 28.5 h, 10 µM was 106%. Same read-out and setting: with `COc1cc(Cl)nnc1Cl` [CBK018956] the figure was 108%. Consider `O=C(O)CC(C(=O)Nc1ccccc1)C1CCCO1` (stereo not shown) [CBK286809], for which the viability at 28.5 h, 10 µM is 93%.

Consider `Sc1nnc(C2CCCC2)n1CC1CCCO1` (stereo not shown) [CBK288413], for which the viability at 28.5 h, 10 µM is 107%. Take `Cc1nn(C)cc1-c1cncn1CC(C)N1CCC(C)CC1` (stereo not shown) [CBK281789]: the viability at 28.5 h, 10 µM was determined as 91.4%. Still for that read-out and setting: then `Cc1cccc(=O)n1CCCn1cc(C2CCOC2)nn1` (stereo not shown) [CBK307368], with 100%; and `C/C(=N\O)c1oc2ccccc2c(=O)c1O` [CBK010642], with 98.6%; and `O=C(O)c1cccc2c3c([nH]c12)CCCCC3` [CBK003451], with 85%. The same measure, in the same setting: then `O=C1CC(c2ccc(S(=O)(=O)NCc3ccccc3)cc2)CN1` (stereo not shown) [CBK270155], with 87.5%; and `Cn1nc(-c2ccccc2)cc1[C@H]1CN2CC[C@H]1C[C@@H]2CNS(C)(=O)=O` [CBK289096], with 99.2%. In the case of `Cc1cc(NC(=O)CSc2nc(-c3ccc(F)cc3)cc(C(F)(F)F)n2)n(-c2ccccc2)n1` [CBK266248], the viability at 28.5 h, 10 µM was 102%.

In the case of `Fc1cc(Br)ccc1-c1cn(-c2ccccc2)nn1` [CBK113148], the viability at 28.5 h, 10 µM was found to be 80.7%. On the same count and under the same terms, then `O=C(CCC1CCCC1)N1CCC(O)(c2cccnc2)CC1` [CBK283603], with 101%; and `COc1ccc(C(=O)Nc2nc3ccc(OC)cc3s2)cc1` [CBK287306], with 96.5%; and `CC(=O)N1CCN(CC[C@@H]2CC[C@H](O)[C@@H](C(=O)N(C)Cc3ccccc3)O2)CC1` [CBK288716], with 93.3%.

For `NC(=O)c1ccc(-c2nccnc2NCCc2ccncc2)cc1` [CBK036644], the viability at 28.5 h, 10 µM was determined as 97.1%. Regarding `NC(=O)C1CCN([C@H]2[C@@H]3OC[C@@H](O3)[C@@H](NCc3ccc(F)cc3)[C@@H]2O)CC1` [CBK288830], the viability at 28.5 h, 10 µM came to 91.2%. Consider `CCOc1ccccc1C(=O)Nc1ccc(O)cc1` [CBK099037], for which the viability at 28.5 h, 10 µM is 91.8%.

`O=C(O)C1CSC(c2cccnc2)N1` (stereo not shown) [CBK260910]: the viability at 28.5 h, 10 µM was found to be 111%. Regarding `S=C(NCCN1CCCCC1)NCC1CCCO1` (stereo not shown) [CBK268129], the viability at 28.5 h, 10 µM amounted to 107%. Take `COc1cc2c(cc1-c1cn(CCc3n[nH]c(=O)[nH]3)nn1)CCC2` [CBK307112]: the viability at 28.5 h, 10 µM is 98.3%. As for `COc1cccc(C(=O)Nc2ccc(-c3noc(-c4ccncc4)n3)cc2)c1` [CBK269892], the viability at 28.5 h, 10 µM was 93.4%. Turning to `O=C(NCCOCc1ccc(Cl)cc1)c1cc(-n2cnnc2)ccc1Cl` [CBK267939], the viability at 28.5 h, 10 µM came out at 101%. As for `Clc1ccc(CN2CCC(Oc3cncc(OCc4cccnc4)n3)C2)cc1` (stereo not shown) [CBK084451], the viability at 28.5 h, 10 µM is 104%. As for `N#CC1CCC(CNC(=O)c2sc3ccccc3c2Cl)CC1` (stereo not shown) [CBK010864], the viability at 28.5 h, 10 µM came to 106%. `Oc1ccccc1/C=N/Nc1nnc(-c2ccccc2)c(-c2ccccc2)n1` [CBK262003]: the viability at 28.5 h, 10 µM was 93%. For the molecule `Cc1cc(Br)ccc1NC(=O)CSc1nnc(-c2ccccc2O)n1-c1ccccc1` [CBK268086], the viability at 28.5 h, 10 µM amounted to 90.7%.

As for `Cc1cc(CNC(=O)CCn2ccc(C)n2)on1` [CBK281485], the viability at 28.5 h, 10 µM is 97.3%. With `O=C(NCc1ccco1)c1ccc2c(c1)OCO2` [CBK262133], the viability at 28.5 h, 10 µM amounted to 94.4%. For `CCOc1cc(/C=C(/C#N)C(N)=S)ccc1OCC(=O)N1CCCC1` [CBK268765], the viability at 28.5 h, 10 µM was determined as 91.3%. Same read-out and setting: then `Cc1nn(CCC#N)c(C)c1[C@@H]1C=C[C@@H](NC(=O)NCc2ccccc2)C1` [CBK289174], with 96.8%; and `CCS(=O)(=O)N1CCC2(C=Cc3cc(F)ccc3O2)CC1` [CBK284747], with 104%; and `Cc1cccc(NCC2CCN(Cc3cc(=O)n4ccccc4n3)C2)n1` (stereo not shown) [CBK305756], with 100%. Same read-out and setting: then `CC(=O)Nc1ccc(S(=O)(=O)NCc2ccc3[nH]c4c(c3c2)CCCC4)cc1` [CBK267122], with 87.1%; and `COc1cc(-c2cncc(N3CCCC3CO)n2)cc(OC)c1OC` (stereo not shown) [CBK065389], with 104%. For `CNC(=O)c1cccc(NC(=O)c2cc(-c3ccc(O)cc3)cnc2N(C)C)c1` [CBK106397], the viability at 28.5 h, 10 µM turned out to be 89.6%.

The same data set, now with this note: human, hela cells, % viability, bulk resorufin, single well.
With `Fc1cc(F)cc(-c2ccc3c(c2)COC2(CCNCC2)O3)c1` [CBK060915], the viability at 28.5 h, 10 µM is 87.7%.

By viability is commonly meant a read-out of living cells in per cent, often relative to untreated cells.
